Experimental data as given in US7166622B2, “Substituted phenylsulfonamide inhibitors of beta amyloid production” (Wyeth, priority 2002, dated 2007).
Where two headings read alike, the source gives them in different places.

How the values were obtained:
CHO-K1 cells = assay: Toxicity in RRA (loss of luciferase signal); settings: toxicity = loss of signal (<0.75 fold increase)
beta amyloid production = assay: Repressor Release Assay (RRA); type: cell-based; settings: for fold induction at 20 µg/mL / APPI Fold Increase / APPI % of Example #98: Conc 20 μg/ml; for APPI % of Example #98: relative to Example 98
Procedure: CHO-K1 cells were cultured in whole DMEM media (DMEM—High Glucose with 10% fetal bovine serum, 1% Non-essential Amino Acids, and 1% Penicillin-Streptomycin) at 37° C. with 5% CO2. Two million cells were plated into 10-cm dishes 24 hrs prior to transfection.
Transient transfections were completed as recommended by Gibco BRL using their Lipofectamine Plus system. First, 6 μg of pRSVO-luc and 6 μg of APP-lacI construct DNA were added to 460 μL Opti-Mem transfection media and incubated with 30 μL Plus reagent for 15 minutes. Then, a lipid mixture of 40 μL Lipofectamine reagent and 460 μL Opti-Mem transfection media was incubated with the DNA-Plus reagent mixture for 15 minutes. During the DNA-lipid incubation, the CHO-K1 cells were washed once and covered in 5.0 mL DMEM media without Penicillin-Streptomycin. The DNA-lipid preparation was then layered onto these cells and incubated at 37° C. overnight.
[…] transfected cells per well (100 μL total volume) were plated into sterile, opaque Packard 96-well Culture-Plates in clear DMEM whole media (DMEM—without phenol red) and incubated at 37° C. with 5% CO2 for 3-5 hours.
Compounds were diluted using two different protocols; one protocol was used for compounds supplied neat (weighed powder in vial) and the other protocol was used for compounds supplied in solution (20 mM in DMSO in 96-well plates). For both protocols, 25 mM Hepes and 25 mM Hepes/1% DMSO were prepared fresh to be used as diluent. The Hepes/DMSO was used as the diluent control on all experimental plates.
The following table depicts the steps for compound dilution (please note that the last step was the addition of compound to cells/media in tissue culture plate).
Because some compounds were present in 96-well format at 20 mM, the following represents the protocol for their dilution (note that an average molecular weight of these compounds was used to calculate these dilutions and as above, the last step was the addition of compound to cells/media in tissue culture plate).
Once the compounds were diluted, they were applied in duplicate on cells in tissue culture plates (prepared above). Cells were incubated with compound at 37° C. with 5% CO2 for an additional 36-48 hours.
Luciferase assays (LucLite reagent, Packard) were performed and were read on a Packard TopCount instrument. Media was removed from each 96-well plate and replaced with 100 μL PBS per well (with Mg^2+ and Ca^2+). An equal volume (100 μL) of the LucLite lysis/substrate buffer was added to each well and the plates were sealed and mixed in the dark on a rotary shaker for 15-30 minutes at room temperature. Luciferase readings were then taken on the TopCount instrument. Measurements were expressed as relative light units (RLU) and are calculated and analyzed in MS Excel as follows: […]

[1] = luciferase activity over diluent control, read-out: APPI Fold Increase
[2] = luciferase activity over diluent control
[3] = Conc 20 μg/ml, 1=non-toxic, 0=toxic
[4] = luciferase activity (RLU) over diluent control, read-out: APPI Fold Increase

CC[C@@H](C)[C@@H](CO)NS(=O)(=O)c1ccc(Cl)cc1 [Example 39, 4-chloro-N-[(1S,2R)-1-(hydroxymethyl)-2-methylbutyl]benzenesulfonamide]
(%)APPI Toxicity (CHO-K1 cells; Conc 3 μg/ml): 1 (1=non-toxic) | (%)APPI Toxicity (CHO-K1 cells; Conc 10 μg/ml): 1 (1=non-toxic) | (%)APPI Toxicity (CHO-K1 cells; Conc 20 μg/ml): 1 (1=non-toxic) | fold induction at 3 µg/mL (beta amyloid production; Conc 3 μg/ml, luciferase activity over diluent control, read-out: APPI Fold Increase): 1.56 | fold induction at 10 µg/mL (beta amyloid production; Conc 10 μg/ml, luciferase activity over diluent control, read-out: APPI Fold Increase): 2.47 | fold induction at 20 µg/mL (beta amyloid production; [1]): 5.5

C=CCN([C@H](CO)[C@@H](C)CC)S(=O)(=O)c1ccc(Cl)cc1 [Example 40, N-Allyl-4-chloro-N-[(1S,2 S)-1-(hydroxymethyl)-2-methylbutyl]benzenesulfonamide]
(%)APPI Toxicity (CHO-K1 cells; Conc 20 μg/ml): 1 (1=non-toxic) | fold induction at 20 µg/mL (beta amyloid production; [1]): 3.4

CC[C@H](C)[C@@H](CO)N(Cc1ccc(-c2ccccc2)cc1)S(=O)(=O)c1ccc(Cl)cc1 [Example 41, N-([1,1′-biphenyl]-4-ylmethyl)-4-chloro-N-[(1S,2S)-1-(hydroxymethyl)-2-methylbutyl]benzenesulfonamide]
(%)APPI Toxicity (CHO-K1 cells; Conc 20 μg/ml): 1 (1=non-toxic) | fold induction at 20 µg/mL (beta amyloid production; [1]): 4.9

CC[C@H](C)[C@@H](CO)N(Cc1ccc(Cl)cc1)S(=O)(=O)c1ccc(Cl)cc1 [Example 43, 4-chloro-N-(4-chlorobenzyl)-N-[(1S,2S)-1-(hydroxymethyl)-2-methylbutyl]benzenesulfonamide]
(%)APPI Toxicity (CHO-K1 cells; Conc 20 μg/ml): 1 (1=non-toxic) | fold induction at 20 µg/mL (beta amyloid production; [1]): 5.1

CC[C@H](C)[C@@H](CO)N(CC1CCC1)S(=O)(=O)c1ccc(Cl)cc1 [Example 44, 4-chloro-N-(cyclobutylmethyl)-N-[(1S,2S)-1-(hydroxymethyl)-2-methylbutyl] benzenesulfonamide]
(%)APPI Toxicity (CHO-K1 cells; Conc 20 μg/ml): 1 (1=non-toxic) | APPI Fold Increase (beta amyloid production; [2]): 2.6 fold | APPI % of Example #98 (beta amyloid production): 95.7%

CC[C@H](C)[C@@H](CO)N(Cc1ccc(OC)c(OC)c1)S(=O)(=O)c1ccc(Cl)cc1 [Example 45, 4-chloro-N-(3,4-dimethoxybenzyl)-N-[(1S,2S)-1-(hydroxymethyl)-2-methylbutyl]benzenesulfonamide]
(%)APPI Toxicity (CHO-K1 cells; Conc 20 μg/ml): 1 (1=non-toxic) | fold induction at 20 µg/mL (beta amyloid production; [1]): 1.5

CC[C@H](C)[C@@H](CO)N(Cc1ccco1)S(=O)(=O)c1ccc(Cl)cc1 [Example 46, 4-chloro-N-(2-furylmethyl)-N-[(1S,2S)-1-(hydroxymethyl)-2-methylbutyl]benzenesulfonamide]
(%)APPI Toxicity (CHO-K1 cells; Conc 20 μg/ml): 1 (1=non-toxic) | fold induction at 20 µg/mL (beta amyloid production; [1]): 1.8

CC[C@H](C)[C@@H](CO)N(CCSC)S(=O)(=O)c1ccc(Cl)cc1 [Example 47, 4-chloro-N-[(1S,2S)-1-(hydroxymethyl)-2-methylbutyl]-N-[2-(methylthio)ethyl]benzenesulfonamide]
(%)APPI Toxicity (CHO-K1 cells; Conc 20 μg/ml): 1 (1=non-toxic) | fold induction at 20 µg/mL (beta amyloid production; [1]): 2.4

CC[C@H](C)[C@@H](CO)N(CC#Cc1ccccc1)S(=O)(=O)c1ccc(Cl)cc1 [Example 48, 4-chloro-N-[(1S,2S)-1-(hydroxymethyl)-2-methylbutyl]-N-(3-phenylprop-2-ynyl) benzenesulfonamide]
(%)APPI Toxicity (CHO-K1 cells; Conc 20 μg/ml): 1 (1=non-toxic) | APPI Fold Increase (beta amyloid production; [2]): 3.1 fold | APPI % of Example #98 (beta amyloid production): 116.6%

COc1ccc([C@@H](C)[C@@H](CO)NS(=O)(=O)c2ccc(Cl)cc2)cc1 [Example 49, 4-Chloro-N-[(1S,2R)-1-(hydroxymethyl)-2-(4-methoxyphenyl)propyl]benzenesulfonamide]
(%)APPI Toxicity (CHO-K1 cells; Conc 20 μg/ml): 1 (1=non-toxic) | fold induction at 20 µg/mL (beta amyloid production; [1]): 2.5

CCCCCC[C@@H](C)[C@@H](CO)NS(=O)(=O)c1ccc(Cl)cc1 [Example 50, 4-chloro-N-[(1S,2R)-1-(hydroxymethyl)-2-methyloctyl]benzenesulfonamide]
(%)APPI Toxicity (CHO-K1 cells; Conc 20 μg/ml): 1 (1=non-toxic) | fold induction at 20 µg/mL (beta amyloid production; [1]): 2.5

C[C@H](c1ccccc1)[C@@H](CO)NS(=O)(=O)c1ccc(Cl)cc1 [Example 51, 4-chloro-N-[(1S,2R)-1-(hydroxymethyl)-2-phenylpropyl]benzenesulfonamide]
(%)APPI Toxicity (CHO-K1 cells; [3]): 1 (1=non-toxic) | fold induction at 20 µg/mL (beta amyloid production; [4]): 1.6

CCC(CC)[C@@H](CO)NS(=O)(=O)c1ccc(Cl)cc1 [Example 52, 4-chloro-N-[(1S)-2-ethyl-1-(hydroxymethyl)butyl]benzenesulfonamide]
(%)APPI Toxicity (CHO-K1 cells; [3]): 1 (1=non-toxic) | fold induction at 20 µg/mL (beta amyloid production; [4]): 6.2

CC[C@H](CC(C)C)[C@@H](CO)NS(=O)(=O)c1ccc(Cl)cc1 [Example 53, 4-chloro-N-[(1S,2R)-2-ethyl-1-(hydroxymethyl)-4-methylpentyl]benzenesulfonamide]
(%)APPI Toxicity (CHO-K1 cells; [3]): 1 (1=non-toxic) | fold induction at 20 µg/mL (beta amyloid production; [4]): 5.2

CCC[C@H](C)[C@@H](CO)NS(=O)(=O)c1ccc(Cl)cc1 [Example 54, 4-chloro-N-[(1S,2S)-1-(hydroxymethyl)-2-methylpentyl]benzenesulfonamide]
(%)APPI Toxicity (CHO-K1 cells; [3]): 1 (1=non-toxic) | fold induction at 20 µg/mL (beta amyloid production; [4]): 5

CCC[C@H](CC)[C@@H](CO)NS(=O)(=O)c1ccc(Cl)cc1 [Example 55, 4-chloro-N-[(1S,2S)-2-ethyl-1-(hydroxymethyl)pentyl]benzenesulfonamide]
(%)APPI Toxicity (CHO-K1 cells; [3]): 1 (1=non-toxic) | fold induction at 20 µg/mL (beta amyloid production; [4]): 5.6

CCC[C@H](CC(C)C)[C@@H](CO)NS(=O)(=O)c1ccc(Cl)cc1 [Example 56, 4-chloro-N-[(1S,2R)-1-(hydroxymethyl)-4-methyl-2-propylpentyl]benzenesulfonamide]
(%)APPI Toxicity (CHO-K1 cells; [3]): 1 (1=non-toxic) | fold induction at 20 µg/mL (beta amyloid production; [4]): 3.6

CCC[C@H](c1ccc(OC)cc1)[C@@H](CO)NS(=O)(=O)c1ccc(Cl)cc1 [Example 57, 4-chloro-N-[(1S,2R)-1-(hydroxymethyl)-2-(4-methoxyphenyl)pentyl]benzenesulfonamide]
(%)APPI Toxicity (CHO-K1 cells; [3]): 1 (1=non-toxic) | fold induction at 20 µg/mL (beta amyloid production; [4]): 1.7

CCCCCC[C@@H](CCC)[C@@H](CO)NS(=O)(=O)c1ccc(Cl)cc1 [Example 58, 4-chloro-N-[(1S,2R)-1-(hydroxymethyl)-2-propyloctyl]benzenesulfonamide]
(%)APPI Toxicity (CHO-K1 cells; [3]): 1 (1=non-toxic) | fold induction at 20 µg/mL (beta amyloid production; [4]): 2.6

CCC[C@H](c1ccccc1)[C@@H](CO)NS(=O)(=O)c1ccc(Cl)cc1 [Example 59, 4-chloro-N-[(1S,2R)-1-(hydroxymethyl)-2-phenylpentyl]benzenesulfonamide]
(%)APPI Toxicity (CHO-K1 cells; [3]): 1 (1=non-toxic) | fold induction at 20 µg/mL (beta amyloid production; [4]): 3.2

CCCCC[C@H](C)[C@@H](CO)NS(=O)(=O)c1ccc(Cl)cc1 [Example 60, 4-chloro-N-[(1S,2S)-1-(hydroxymethyl)-2-methylheptyl]benzenesulfonamide]
(%)APPI Toxicity (CHO-K1 cells; [3]): 1 (1=non-toxic) | fold induction at 20 µg/mL (beta amyloid production; [4]): 4.6

CCCCC[C@H](CC)[C@@H](CO)NS(=O)(=O)c1ccc(Cl)cc1 [Example 61, 4-chloro-N-[(1S,2S)-2-ethyl-1-(hydroxymethyl)-heptyl]benzenesulfonamide]
(%)APPI Toxicity (CHO-K1 cells; [3]): 1 (1=non-toxic) | fold induction at 20 µg/mL (beta amyloid production; [4]): 6.5

CCCCCC[C@@H](CCCCC)[C@@H](CO)NS(=O)(=O)c1ccc(Cl)cc1 [Example 62, 4-chloro-N-[(1S,2R)-1-(hydroxymethyl)-2-pentyloctyl]benzenesulfonamide]
(%)APPI Toxicity (CHO-K1 cells; [3]): 1 (1=non-toxic) | fold induction at 20 µg/mL (beta amyloid production; [4]): 1.8

C[C@@H](c1ccccc1)[C@@H](CO)NS(=O)(=O)c1ccc(Cl)cc1 [Example 63, 4-chloro-N-[(1S,2S)-1-(hydroxymethyl)-2-phenylpropyl]benzenesulfonamide]
(%)APPI Toxicity (CHO-K1 cells; [3]): 1 (1=non-toxic) | fold induction at 20 µg/mL (beta amyloid production; [4]): 2
